The values below come from US8796256B2 (Janssen Pharmaceutica NV, priority 2010, dated 2014).

Experiment [1] has as its target T1, ERR1 (also known as ERR-α or ERR-1) (Homo sapiens, UniProt P11474).
T1 sequence (P11474 193-421 limits assumed): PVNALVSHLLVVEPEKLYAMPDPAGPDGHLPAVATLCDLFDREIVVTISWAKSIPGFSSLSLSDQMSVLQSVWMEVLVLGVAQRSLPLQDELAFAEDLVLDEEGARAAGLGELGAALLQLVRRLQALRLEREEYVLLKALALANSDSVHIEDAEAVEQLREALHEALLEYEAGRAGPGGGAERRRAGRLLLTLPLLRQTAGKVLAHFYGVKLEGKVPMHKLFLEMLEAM
Description: TR-FRET assay (disruption of co-activator peptide binding to ERR1 LBD). It is filed as biochemical. The conditions noted are these: 6 nM 6His-ERR1LBD, 6 nM GST-SRC-2 peptide; average of 3 independent experiments. In a few lines: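 Homogeneous TR-FRET measuring displacement of GST-hSRC2 co-activator peptide (6 nM) from His-tagged ERR1 LBD (6 nM), detected with α-GST Eu cryptate (30 nM) and α-His-XL665 (7.5 nM). Buffer 25 mM Tris pH 8, 2.5 mM Hepes, 20 mM KCl, 1 mM DTT, 0.05 mg/mL delipidated BSA; equilibration 4-18 h at 25° C. Hyperbolic dose-response fit, mean of 3 experiments.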
A general note: In TR-FRET formats the signal depends on donor and acceptor labels being close together.

A further experiment has as its system Zucker fa/fa male rats. The experiment can be described thus: Zucker fa/fa Rat Model Assay. The conditions noted are these: po, 120 h, 10 mg/kg orally once a day for 4 days. It is filed as in vivo. From the text:
Zucker fa/fa is a monogenic model of frank diabetes due to a mutation on the fa gene truncating the leptin receptor and preventing its interaction with its peptide hormone. This mutation results in a hyperphagic phenotype and the rodent develops obesity, hyperlipidemia, fasting hyperglycemia and insulin resistance. Zucker fa/fa male rats were received at four weeks of age and allowed to acclimate for one week. At five weeks of age the animals were single housed in cages in a temperature-controlled room with 12-hour light/dark cycle. The rats were allowed ad libitum access to water and food and throughout the study were maintained on a Purina 5008 diet. Animals were sorted based primarily on fed insulin levels and circulating triglycerides. Animals were dosed orally once a day (10 mg/kg) in the morning for 4 days. The vehicle used was either 20% HPβCD (Hydroxypropyl Beta Cyclodextrin) or 15% Vitamin E/30% PEG-400 (Polyethylene Glycol 400). Fed insulin and triglycerides were measured using blood collected from the tail vein at day 5. Serum plasma samples were prepared by centrifugation in EDTA (Ethylenediaminetetraacetic acid) containing tubes, transferred into 96 well plates and stored at −80° C.

The mark [2] stands for this setting: blood from tail vein at day 5, read-out: % Change Fed Insulin Levels.
The mark [3] stands for this setting: blood from tail vein at day 5, read-out: % Change Fed Triglyceride Levels.

pEC50: −log10 of the molar value. Where two headings read alike, the source gives them in different places.

As a reminder, the pEC50 is the negative decadic logarithm of the EC50, by convention in mol/L. A higher pEC50 goes with a small EC50.

`O=C(O)CN1C(=O)S/C(=C\c2ccc3c(cnn3Cc3ccc(C(F)(F)F)cc3C(F)(F)F)c2)C1=O` [Compound 59, [(5Z)-5-({1-[2,4-Bis(trifluoromethyl)benzyl]-1H-indazol-5-yl}methylidene)-2,4-dioxo-1,3-thiazolidin-3-yl]acetic acid] gave a pEC50 in experiment [1] of 7.59. Also, the figures for the change in vivo at 10 mg/kg in the experiment on Zucker fa/fa male rats (setting [2]) and in the experiment with Zucker fa/fa male rats (setting [3]) were -23% and -25%, respectively.
Compound `CN1CC[C@H](N2C(=O)S/C(=C\c3ccc4c(cnn4Cc4ccc(Cl)cc4C(F)(F)F)c3)C2=O)[C@@H](F)C1` [Compound 384, (5Z)-5-({1-[4-Chloro-2-(trifluoromethyl)benzyl]-1H-indazol-5-yl}methylidene)-3-[(3S,4S)-3-fluoro-1-methylpiperidin-4-yl]-1,3-thiazolidine-2,4-dione] had a pEC50 in experiment [1] of 7.66. Also, the figures for the change in vivo at 10 mg/kg in the experiment on Zucker fa/fa male rats (setting [2]) and with Zucker fa/fa male rats (setting [3]) were -52% and -51%, respectively.
`O=C(O)CN1C(=O)S/C(=C\c2ccc3c(c2)nnn3Cc2ccc(Cl)cc2C(F)(F)F)C1=O` [Compound 260, [(5Z)-5-({1-[4-Chloro-2-(trifluoromethyl)benzyl]-1H-benzotriazol-5-yl}methylidene)-2,4-dioxo-1,3-thiazolidin-3-yl]acetic acid] showed a pEC50 in experiment [1] of 7.39. For the same compound, the change in vivo at 10 mg/kg was -50% with Zucker fa/fa male rats (setting [2]) and -23% with Zucker fa/fa male rats (setting [3]).
`N[C@@H](CO)CN1C(=O)S/C(=C\c2ccc3c(cnn3Cc3ccc(Cl)cc3C(F)(F)F)c2)C1=O` [Compound 167, (5Z)-3-[(2R)-2-Amino-3-hydroxypropyl]-5-({1-[4-chloro-2-(trifluoromethyl)benzyl]-1H-indazol-5-yl}methylidene)-1,3-thiazolidine-2,4-dione] showed a pEC50 in experiment [1] of 7.64. Moreover, the values for the change in vivo at 10 mg/kg in the experiment on Zucker fa/fa male rats (setting [2]) and in the experiment on Zucker fa/fa male rats (setting [3]) were -33% and -45%, respectively.
On to `O=C1CN(CCN2C(=O)S/C(=C\c3ccc4c(cnn4Cc4ccc(Cl)cc4C(F)(F)F)c3)C2=O)CCN1` [Compound 79, (5Z)-5-({1-[4-Chloro-2-(trifluoromethyl)benzyl]-1H-indazol-5-yl}methylidene)-3-[2-(3-oxopiperazin-1-yl)ethyl]-1,3-thiazolidine-2,4-dione], for which the pEC50 in experiment [1] was 7.52. Further, the change in vivo at 10 mg/kg in the experiment with Zucker fa/fa male rats (setting [2]) was -20%; with Zucker fa/fa male rats (setting [3]) it was 34%.
On to `O=C(CN1C(=O)S/C(=C\c2ccc3c(cnn3Cc3ccc(Cl)cc3C(F)(F)F)c2)C1=O)NS(=O)(=O)N1CCCC1` [Compound 38, 2-[(5Z)-5-({1-[4-Chloro-2-(trifluoromethyl)benzyl]-1H-indazol-5-yl}methylidene)-2,4-dioxo-1,3-thiazolidin-3-yl]-N-(pyrrolidin-1-ylsulfonyl)acetamide], for which the pEC50 in experiment [1] is 7.60. Besides, the values for the change in vivo at 10 mg/kg with Zucker fa/fa male rats (setting [2]) and in the experiment on Zucker fa/fa male rats (setting [3]) were -47% and 1%, respectively.
The corresponding values for `O=C1S/C(=C\c2ccc3c(cnn3Cc3ccc(Cl)cc3C(F)(F)F)c2)C(=O)N1CCN1CCCC1` [Compound 111, (5Z)-5-({1-[4-Chloro-2-(trifluoromethyl)benzyl]-1H-indazol-5-yl}methylidene)-3-(2-pyrrolidin-1-ylethyl)-1,3-thiazolidine-2,4-dione] are 7.77, -49% and -30%.
For the compound `CC(=O)NS(=O)(=O)CN1C(=O)S/C(=C\c2ccc3c(cnn3Cc3ccc(Cl)cc3C(F)(F)F)c2)C1=O` [Compound 166, N-({[(5Z)-5-({1-[4-Chloro-2-(trifluoromethyl)benzyl]-1H-indazol-5-yl}methylidene)-2,4-dioxo-1,3-thiazolidin-3-yl]methyl}sulfonyl)acetamide], the pEC50 in experiment [1] was 8.10. Moreover, the change in vivo at 10 mg/kg was -58% with Zucker fa/fa male rats (setting [2]) and -37% in the experiment on Zucker fa/fa male rats (setting [3]).
`CN1CCC[C@H]1CN1C(=O)S/C(=C\c2ccc3c(cnn3Cc3ccc(Cl)cc3C(F)(F)F)c2)C1=O` [Compound 121, (5Z)-5-({1-[4-Chloro-2-(trifluoromethyl)benzyl]-1H-indazol-5-yl}methylidene)-3-{[(2S)-1-methylpyrrolidin-2-yl]methyl}-1,3-thiazolidine-2,4-dione] gave a pEC50 in experiment [1] of 8.30. Besides, the figures for the change in vivo at 10 mg/kg in the experiment on Zucker fa/fa male rats (setting [2]) and in the experiment on Zucker fa/fa male rats (setting [3]) were -59% and -37%, respectively.
For the compound `CS(=O)(=O)CCN1CCC(N2C(=O)S/C(=C\c3ccc4c(cnn4Cc4ccc(Cl)cc4C(F)(F)F)c3)C2=O)CC1` [Compound 149, (5Z)-5-({1-[4-Chloro-2-(trifluoromethyl)benzyl]-1H-indazol-5-yl}methylidene)-3-{1-[2-(methylsulfonyl)ethyl]piperidin-4-yl}-1,3-thiazolidine-2,4-dione], the pEC50 in experiment [1] is 7.59. In addition, the change in vivo at 10 mg/kg was -35% in the experiment on Zucker fa/fa male rats (setting [2]) and 10% with Zucker fa/fa male rats (setting [3]).
The corresponding values for `O=C(O)CN1CCC(N2C(=O)S/C(=C\c3ccc4c(cnn4Cc4ccc(Cl)cc4C(F)(F)F)c3)C2=O)CC1` [Compound 146, {4-[(5Z)-5-({1-[4-Chloro-2-(trifluoromethyl)benzyl]-1H-indazol-5-yl}methylidene)-2,4-dioxo-1,3-thiazolidin-3-yl]piperidin-1-yl}acetic acid] are 7.80, -26% and -14%.
`O=C1S/C(=C\c2ccc3c(cnn3Cc3ccc(Cl)cc3C(F)(F)F)c2)C(=O)N1O` [Compound 288, (5Z)-5-({1-[4-Chloro-2-(trifluoromethyl)benzyl]-1H-indazol-5-yl}methylidene)-3-hydroxy-1,3-thiazolidine-2,4-dione] gave a pEC50 in experiment [1] of 7.80. For the same compound, the change in vivo at 10 mg/kg with Zucker fa/fa male rats (setting [2]) is -35%; with Zucker fa/fa male rats (setting [3]), -29%.
The corresponding values for `O=C(O)C1CCC(N2C(=O)S/C(=C\c3ccc4c(cnn4Cc4ccc(Cl)cc4C(F)(F)F)c3)C2=O)CC1` (stereo not drawn) [Compound 73, 4-[(5Z)-5-({1-[4-Chloro-2-(trifluoromethyl)benzyl]-1H-indazol-5-yl}methylidene)-2,4-dioxo-1,3-thiazolidin-3-yl]cyclohexanecarboxylic acid] are 7.92, -30% and -19%.
`CS(=O)(=O)NC(=O)CN1C(=O)S/C(=C\c2ccc3c(cnn3Cc3ccc(Cl)cc3C(F)(F)F)c2)C1=O` [Compound 126, 2-[(5Z)-5-({1-[4-Chloro-2-(trifluoromethyl)benzyl]-1H-indazol-5-yl}methylidene)-2,4-dioxo-1,3-thiazolidin-3-yl]-N-(methylsulfonyl)acetamide]: the pEC50 in experiment [1] is 7.74. The change in vivo at 10 mg/kg is -14% in the experiment with Zucker fa/fa male rats (setting [2]) and 13% in the experiment on Zucker fa/fa male rats (setting [3]).
The corresponding values for `COc1ccc(Cn2ncc3cc(/C=C4\SC(=O)N(CC(=O)O)C4=O)ccc32)c(C(F)(F)F)c1` [Compound 19, [(5Z)-5-({1-[4-Methoxy-2-(trifluoromethyl)benzyl]-1H-indazol-5-yl}methylidene)-2,4-dioxo-1,3-thiazolidin-3-yl]acetic acid] are 8.05, -9% and 21%.
The compound `CN(C)S(=O)(=O)NC(=O)CN1C(=O)S/C(=C\c2ccc3c(cnn3Cc3ccc(Cl)cc3C(F)(F)F)c2)C1=O` [Compound 35, 2-[(5Z)-5-({1-[4-Chloro-2-(trifluoromethyl)benzyl]-1H-indazol-5-yl}methylidene)-2,4-dioxo-1,3-thiazolidin-3-yl]-N-(dimethylsulfamoyl) acetamide] gave a pEC50 in experiment [1] of 7.64. The values for the change in vivo at 10 mg/kg in the experiment on Zucker fa/fa male rats (setting [2]) and with Zucker fa/fa male rats (setting [3]) were -29% and -46%, respectively.
The corresponding values for `O=C1S/C(=C\c2ccc3c(cnn3Cc3ccc(Cl)cc3C(F)(F)F)c2)C(=O)N1Cc1nn[nH]n1` [Compound 72, (5Z)-5-({1-[4-Chloro-2-(trifluoromethyl)benzyl]-1H-indazol-5-yl}methylidene)-3-(2H-tetrazol-5-ylmethyl)-1,3-thiazolidine-2,4-dione] are 7.89, -44% and -51%.
In experiment [1], `COc1nn(Cc2ccc(Cl)cc2C(F)(F)F)c2ccc(/C=C3\SC(=O)N(CCN4CCCC4)C3=O)cc12` [Compound 27, (5Z)-5-({1-[4-Chloro-2-(trifluoromethyl)benzyl]-3-methoxy-1H-indazol-5-yl}methylidene)-3-(2-pyrrolidin-1-ylethyl)-1,3-thiazolidine-2,4-dione] had a pEC50 of 7.57. Moreover, the change in vivo at 10 mg/kg turned out to be 9% with Zucker fa/fa male rats (setting [2]) and 0% in the experiment with Zucker fa/fa male rats (setting [3]).
